This note sets out measurements from patent US5786349A, “Method for treating chlamydia infectious diseases by rifamycin derivative” (Kaneka Corporation, priority 1995, dated 1998).

Converted amounts (≈) assume the structure as drawn. “And” between values parts separate entries of the source, which are not always exact repeats. Identical values can stand only once.

For assay [1], the system named is Chlamydia pneumoniae TW-183. Description: In vitro test 3: inhibition of inclusion formation in HeLa 229 cells, about 5 times the inoculum of test 2, C. pneumoniae TW-183. The settings on record: TW183, 72 h, read-out: Minimum inhibitory concentration TW-183.
The test system of assay [2] is Chlamydia pneumoniae AR-39. In words: In vitro test 3: inhibition of inclusion formation in HeLa 229 cells, about 5 times the inoculum of test 2, C. pneumoniae AR-39. The settings on record: AR39, 72 h, read-out: Minimum inhibitory concentration AR-39.
Assay [3] concerns Chlamydia trachomatis D/UW-3/Cx. Description: In vitro test 1: inhibition of inclusion formation in HeLa 229 cells (Japan Society of Chemotherapy standard method), C. trachomatis D/UW-3/Cx. The settings on record: rifampicin vs compound 4.
For assay [4], the system named is Chlamydia trachomatis F/UW-6/Cx. In words: In vitro test 1: inhibition of inclusion formation in HeLa 229 cells (Japan Society of Chemotherapy standard method), C. trachomatis F/UW-6/Cx. The settings on record: rifampicin vs compound 4.
The subject of assay [5] is Chlamydia pneumoniae AR-39. In words: Infection-therapy test: mouse pneumonia model. The settings on record: 1 mg/kg/day i.p. for 3 days.

As to `COC1C=COC2(C)Oc3c(C)c(O)c4c(=O)c(c5oc6cc(N7CCN(CC(C)C)CC7)cc(O)c6nc-5c4c3C2=O)NC(=O)C(C)=CC=CC(C)C(O)C(C)C(O)C(C)C(O)C1C` (centres unmarked) [Compound 5], the results for the MIC in assay [1] and in assay [2] were 1.25 ng/mL (≈ 1.39 nM) and 2.5 ng/mL (≈ 2.78 nM), respectively.

As for `COC1C=COC2(C)Oc3c(C)c(O)c4c(=O)c(c5oc6cc(N7CCOCC7)cc(O)c6nc-5c4c3C2=O)NC(=O)C(C)=CC=CC(C)C(O)C(C)C(O)C(C)C(OC(C)=O)C1C` (centres unmarked) [Compound 1], the MIC in assay [1] stood at 0.63 ng/mL (≈ 0.711 nM); in assay [2] it was 1.25 ng/mL (≈ 1.41 nM).

`CC[C@H]1OC(=O)[C@H](C)[C@@H](O[C@H]2C[C@@](C)(OC)[C@@H](O)[C@H](C)O2)[C@H](C)[C@@H](O[C@@H]2O[C@H](C)C[C@H](N(C)C)[C@H]2O)[C@](C)(O)C[C@@H](C)CN(C)[C@H](C)[C@@H](O)[C@]1(C)O` [Azithromycin, reference compound]: the values for the MIC in assay [1] and in assay [2] were 250 ng/mL (≈ 334 nM) and 500 ng/mL (≈ 668 nM), respectively.

For the molecule `CO[C@H]1/C=C/O[C@@]2(C)Oc3c(C)c(O)c4c(O)c(c(/C=N/N5CCN(C)CC5)c(O)c4c3C2=O)NC(=O)/C(C)=C\C=C\[C@H](C)[C@H](O)[C@@H](C)[C@@H](O)[C@@H](C)[C@H](OC(C)=O)[C@@H]1C` [rifampicin], the “MIC as multiple of the concentration for the compound 4” value in assay [3] and in assay [4] was “about 30 times” each time.

In the case of `COC1C=COC2(C)Oc3c(C)c(O)c4c(=O)c(c5oc6cc(N7CCN(CC(C)C)CC7)cc(O)c6nc-5c4c3C2=O)NC(=O)C(C)=CC=CC(C)C(O)C(C)C(O)C(C)C(OC(C)=O)C1C` (centres unmarked) [Compound 4], the “Mice from which Chlamydia was reisolated from the lung/tested mice” value in assay [5] (2 days after infection) is 3/3; in assay [5] (7 days after infection (3 days after completion of treatment), 1 mg/kg/day) it was “only one mouse in a group of 5 mice and 1/5”; in assay [5] (9 days after infection (5 days after completion of treatment)), 0/5; in assay [5] (14 days after infection (10 days after completion of treatment)), 0/5; in assay [5] (19 days after infection (15 days after completion of treatment)), 0/5. Further, in assay [5] (after the 5th day from completion of treatment), the reisolation of organisms entry was “no reisolation of organisms was observed”. Also, the death of mice result in assay [5] (treatment group) is recorded as “no death of the treatment group of mice was observed”. Moreover, the MIC in assay [1] and in assay [2] was 1.25 ng/mL (≈ 1.33 nM) throughout.

On to `COC1C=COC2(C)Oc3c(C)c(O)c4c(=O)c(c5oc6cc(N7CCN(C)CC7)cc(O)c6nc-5c4c3C2=O)NC(=O)C(C)=CC=CC(C)C(O)C(C)C(O)C(C)C(OC(C)=O)C1C` (centres unmarked) [Compound 2], for which the MIC in assay [1] turned out to be 0.63 ng/mL (≈ 0.701 nM); in assay [2], 0.16 ng/mL (≈ 0.178 nM).

As for `CCCN1CCN(c2cc(O)c3nc4c5c6c7c(C)c(O)c5c(=O)c(c-4oc3c2)NC(=O)C(C)=CC=CC(C)C(O)C(C)C(O)C(C)C(OC(C)=O)C(C)C(OC)C=COC(C)(O7)C6=O)CC1` (centres unmarked) [Compound 3], the MIC is 5 ng/mL (≈ 5.39 nM) in assay [1] and 1.25 ng/mL (≈ 1.35 nM) in assay [2].

`COC1C=COC2(C)Oc3c(C)c(O)c4c(=O)c(c5oc6cc(N7CCN(CC8OCCO8)CC7)cc(O)c6nc-5c4c3C2=O)NC(=O)C(C)=CC=CC(C)C(O)C(C)C(O)C(C)C(OC(C)=O)C1C` (centres unmarked): the MIC in assay [1] was 2.5 ng/mL (≈ 2.57 nM); in assay [2], 0.63 ng/mL (≈ 0.649 nM).
